# Data: ChEMBL document CHEMBL3430912, “GSK Tres Cantos Anti-Kinetoplastid Screening (TCAKS) Data”
# Assays:
# [1] = tested on: Trypanosoma brucei brucei; assay: GSK_TCAKS: pIC50 Trypanosoma brucei viability assay using luminiscence. Assay plates (1536-well) were prepared. T. brucei cultures were harvested and counted in a CASY cell counter. A parasite suspension was prepared at a final concentration of 5 * 10^4 cells/mL in complete HMI9 medium and 6uL was dispensed to all wells containing compounds using a Multidrop Combi dispenser. 6uL of HMI9 media with 0.4% DMSO were dispensed to control columns. Plates were incubated for 24 h at 37C, 5% CO2 then tempered for 10 min at room temperature. ATP content was quantified by adding 4 uL of CellTiter-Glo Reagent (Promega) according to the manufacturer's instructions. Luminescence was measured using a ViewLux.; type: functional, organism-based; details: Lister 427, CASY
# Trypanosoma cruzi [2] = assay: (§1) GSK_TCAKS: pIC50 H2C9 Imaging: H9c2 Host Cardiomyocytes. […] Cells were then washed once with PBS before infection. T. cruzi trypomastigotes, collected at days 5 to 8 after infection from LLC-MK2 parasite infected cultures, were allowed to swim out for 4h at 37C from a centrifuged pellet (2,500 rpm/10 min/room temperature). Trypomastigotes were then collected and counted in a CASY Cell Counter. Trypomastigotes, in supplemented DMEM, were added to H9c2 cultures in a multiplicity of infection of 1 and incubated for 18 h. Cells were washed once with PBS before incubation of the infected H9c2 monolayer with trypsin (Life-Technologies) to detach cells from the flask. Cells were counted in a CASY Cell Counter using a 150 um capillary and their density set at 5 * 10^4 cells per mL in supplemented assay DMEM. Infected H9c2 were dispensed into 384-well poly-lysine coated assay plates at 50uL per well using a Multidrop Combi dispenser. After seeding them, the plates were incubated at 37C, 5% CO2 for 72h. Cultures were then fixed and stained by addition of 50 uL of a solution containing 8% formaldehyde and 4 uM DRAQ5 DNA dye (BioStatus, UK) per well. […] Five images were collected per well for reliable statistical analysis. Automated image analysis was performed with a script developed on Acapella High Content Imaging and Analysis Software (PerkinElmer). Output: Number of H9c2 Host Cardiomyocytes nuclei to determine drug-related cytotoxicity.; type: functional, organism-based, Rattus norvegicus; details: H9c2, 4 h
# Trypanosoma cruzi [3] = assay: as §1, with “Trypanosoma cruzi” for “H2C9”, “Infected Cells.” for “H9c2 Host Cardiomyocytes.”, “percentage” for “Number”, “infected cells per well as a second infection marker.” for “H9c2 Host Cardiomyocytes nuclei to determine drug-related cytotoxicity.”; type: functional, organism-based, Rattus norvegicus; details: H9c2, 4 h
# Trypanosoma cruzi [4] = assay: GSK_TCAKS: pIC50 Trypanosoma cruzi viability assay using beta-GAL activity. This assay was run at single shot at 5uM compound concentration per well. The biological reagents consisted of NIH-3T3 host cells and trypomastigotes parasitic cells; both cell types were set to a 3.3 * 10^5 cells/mL dilution in assay DMEM by means of a CASY cell counter device using a 60um capillary. 6 uL of the mixture were dispensed per well (about 1 * 10^3 host-cells and 1 * 10^3 parasites) with a Multidrop Combi dispenser. […] In all wells, the percentage of DMSO never exceeded 0.5%. Plates incubated for four days at 37C, 5% CO2. The substrate used for the assay fluorescence intensity (FLINT) readout was resorufin-beta-D-galactopiranoside (Sigma-Aldrich) at 5uM per well. It was diluted in PBS supplemented with the soft detergent Igepal (Fluka).; type: functional, organism-based, Mus musculus; details: Tulahuen, NIH3T3
# Leishmania donovani [5] = assay: GSK_TCAKS: pIC50 Leishmania donovani Imaging: Infected Macrophages. Assay plates (384-well) were prepared by adding 250nL of compound to each well. For single shot assay, the final compound concentration was 5 uM. […] Automated image analysis was performed with a script developed on Acapella High Content Imaging and Analysis Software (PerkinElmer). Output: Percent of infected macrophage cells were reported for each well.; type: functional, organism-based, Homo sapiens; details: THP-1
# Leishmania donovani [6] = assay: GSK_TCAKS: pIC50 Leishmania donovani viability assay using fluorescence intensity. Assay plates (1536-well) were prepared by adding 30nL per well of compound. For single shot assay, the final compound concentration was 5uM. […] Briefly, eGFP LdBOB axenic amastigotes were harvested, fixed and counted in a CASY cell counter (Roche-Applied Science). A final concentration of 1.5 * 10^5 cells per well were prepared in amastigote media containing 500 U/mL penicillin/streptomycin (Invitrogen) and 6uL was dispensed to each experimental well using a Multidrop Combi dispenser (Thermo Scientific). 6uL of assay media was dispensed to control columns used as reference for 100% compound response. Following incubation for 72 h at 37C, 5% CO2, 2 uL of resazurin was added to each well at a final concentration of 0.5 mM in phosphate buffered saline (PBS) with IGEPAL (Sigma-Aldrich), 0.05% (v/v).; type: functional, organism-based
# NIH3T3 = assay: GSK_TCAKS: pIC50 NIH 3T3 cell line viability assay using luminiscence. Tissue culture surface treated assay plates (1536-well) were used. […] The 100% cells survival control was determined exposing the host-cells to a 0.5% DMSO concentration, whereas the 100% toxicity control was achieved by seeding the cells in presence of Amphotericin B at 50uM. Plates were incubated for four days at 37C, 5% CO2. The assay readout was developed by addition of 5uL of CellTiter-Glo Reagent following the manufacturer's instructions. Luminiscence was measured using a ViewLux.; type: functional, cell-based; details: Mus musculus, NIH3T3, 96 h
# [7] = molecular target: Sterol 14-alpha demethylase (Trypanosoma cruzi (strain CL Brener), UniProt Q7Z1V1); assay: GSK_TCAKS: pIC50 CYP51 from Trypanosoma cruzi.; type: functional
# Chain of Sterol 14-alpha demethylase (Q7Z1V1 whole entry): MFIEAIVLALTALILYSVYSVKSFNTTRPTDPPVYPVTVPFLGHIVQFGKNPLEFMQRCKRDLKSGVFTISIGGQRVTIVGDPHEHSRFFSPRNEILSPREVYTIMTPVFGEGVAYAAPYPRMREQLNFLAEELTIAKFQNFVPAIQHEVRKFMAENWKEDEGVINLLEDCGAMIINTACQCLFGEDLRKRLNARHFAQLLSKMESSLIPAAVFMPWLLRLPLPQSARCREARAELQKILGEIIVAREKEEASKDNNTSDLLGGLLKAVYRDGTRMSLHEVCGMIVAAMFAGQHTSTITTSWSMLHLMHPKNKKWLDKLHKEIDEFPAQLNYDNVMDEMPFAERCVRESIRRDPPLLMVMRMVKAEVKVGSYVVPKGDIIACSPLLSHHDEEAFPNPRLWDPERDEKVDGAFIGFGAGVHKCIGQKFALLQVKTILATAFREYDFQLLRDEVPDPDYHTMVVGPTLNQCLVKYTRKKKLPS
# [8] = GSK_TCAKS: pIC50 HepG2 human cell line viability assay using luminiscence. […] Seeding density was checked to ensure that new mono-layers were not more than 50% confluent at the time of harvesting. Cell suspension was added to 500 mL of the same medium at a final density of 1.2 * 10^5 cells/mL. This cell suspension was dispensed (25 uL, 3000 cells per well) into 384-well clear-bottom plates using a Multidrop Combi dispenser. Prior to addition of the cell suspension, the screening compounds (250 nL) were pre-dispensed into the plates with an Echo liquid handler. Plates were incubated for 48 h at 37C, 5% CO2. After incubation, plates equilibrated at room temperature for 30 min before proceeding to develop the luminescent signal. The signal developer, CellTiter-Glo Reagent, was allowed to equilibrate at room temperature for 30 min and added to the plates (25uL per well) using a Multidrop Combi dispenser. Plates were left for 10 min at room temperature for stabilization and then read using a ViewLux.; type: toxicity, cell-based
# Trypanosoma cruzi [9] = assay: as §1, with “Trypanosoma cruzi” for “H2C9”, “Amastigotes/Cell.” for “H9c2 Host Cardiomyocytes.”, “number” for “Number”, “amastigotes per cell as infection level measurement.” for “H9c2 Host Cardiomyocytes nuclei to determine drug-related cytotoxicity.”; type: functional, organism-based, Rattus norvegicus; details: H9c2, 4 h
# Leishmania donovani [10] = assay: GSK_TCAKS: pIC50 Leishmania donovani Imaging: THP-1 Host Macrophages. Assay plates (384-well) were prepared by adding 250nL of compound to each well. For single shot assay, the final compound concentration was 5 uM. […] Automated image analysis was performed with a script developed on Acapella High Content Imaging and Analysis Software (PerkinElmer). Output: THP-1 cell count were reported for each well.; type: functional, organism-based, Homo sapiens
# [11] = tested on: Trypanosoma brucei brucei; assay: GSK_TCAKS: pIC50 Trypanosoma brucei viability assay using fluorescence intensity. Assay plates (1536-well) were prepared by dispensing 25nL of compound solution per well using an Echo acoustic dispenser (Labcyte).; type: functional, organism-based; details: Lister 427, 2 h
# Leishmania donovani [12] = assay: GSK_TCAKS: pIC50 Leishmania donovani Imaging: Amastigotes/Macrophages. Assay plates (384-well) were prepared by adding 250nL of compound to each well. For single shot assay, the final compound concentration was 5 uM. […] Automated image analysis was performed with a script developed on Acapella High Content Imaging and Analysis Software (PerkinElmer). Output: Average number of amastigotes per macrophage cell were reported for each well.; type: functional, organism-based, Homo sapiens; details: THP-1
Compound,IC50 [1] [µM],IC50 (Trypanosoma cruzi [2]) [µM],IC50 (Trypanosoma cruzi [3]) [µM],IC50 (Trypanosoma cruzi [4]) [µM],IC50 (Leishmania donovani [5]) [µM],IC50 (Leishmania donovani [6]) [µM],IC50 (NIH3T3) [µM],IC50 [7] [µM],IC50 at 48 h [8] [µM],IC50 (Trypanosoma cruzi [9]) [µM],IC50 (Leishmania donovani [10]) [µM],IC50 [11] [µM],IC50 (Leishmania donovani [12]) [µM]
Cc1ccc(CNC2CCN(C[C@@H]3Cn4c(=O)ccc5ccc(=O)n3c54)CC2)cc1F,2,> 50.1,1.26,1.26,> 50.1,> 50.1,15.8,> 100,> 100,1,> 50.1,1.58,> 50.1
N#Cc1ccc(S(=O)(=O)N2CCC3(CCN(c4ccccc4)C3=O)CC2)cc1,> 39.8,> 50.1,1,1.26,> 50.1,> 50.1,> 50.1,> 100,> 100,0.631,> 50.1,> 39.8,> 50.1
Cc1cccc(NS(=O)(=O)c2cnc3sc(C)cn3c2=O)c1,> 39.8,6.31,2,1.26,> 50.1,> 50.1,> 50.1,> 100,> 100,1,> 50.1,> 39.8,5.01
O=C(N1CCc2ccccc2CC1)C1(C(=O)N2CCC(n3c(=O)[nH]c4ncccc43)CC2)CC1,> 39.8,> 50.1,0.794,0.631,> 50.1,> 50.1,39.8,0.316,> 100,0.631,> 50.1,> 39.8,> 50.1
COc1ccc2ncc(=O)n(CCN3CCOC(CNCc4ccc(C(F)(F)F)cc4F)C3)c2n1 (stereo not given),2.51,> 50.1,1.58,0.398,> 50.1,39.8,3.98,10,> 100,0.631,> 50.1,0.631,> 50.1
CS(=O)(=O)c1cccc(CNC(=O)c2cncc(N3CCN(c4ccc(F)cc4)CC3)c2)c1,> 39.8,> 50.1,0.398,0.631,> 50.1,> 50.1,25.1,12.6,> 100,0.251,> 50.1,31.6,> 50.1
O[C@H]1CC[C@H](Nc2nccc(-c3sc(C4CCOCC4)nc3-c3ccc(F)c(F)c3)n2)CC1,3.98,31.6,0.316,0.316,5.01,3.16,39.8,> 100,25.1,0.2,20,2,2.51
O=c1oc2ccccc2n1C1CCN(Cc2ccccc2-c2cccnc2)CC1,> 39.8,> 50.1,0.316,0.501,> 50.1,> 50.1,15.8,0.1,> 100,0.398,12.6,39.8,6.31
Cc1c(C(C)NC(=O)Nc2cccc(Cl)c2)sc2ncnn12 (stereo not given),> 39.8,> 50.1,0.2,0.141,> 50.1,2,> 50.1,0.126,> 100,0.158,> 50.1,20,2
O=C(c1cccc(Cl)c1Cl)N1CCn2c1nc(-c1ccncc1)cc2=O,31.6,> 50.1,0.316,0.178,> 50.1,50.1,20,0.0631,> 100,0.316,> 50.1,15.8,31.6
